Laboratory results: US12459951B2, “Compounds that interact with RAS superfamily proteins for treatment of cancers, inflammatory diseases, rasopathies, and fibrotic disease” (SHY Therapeutics, LLC, priority 2022, dated 2025)
Like-named read-outs stand apart in the source and are kept apart here.

Tests used:
KRas G12D mutant = experiment: Ras GTP Binding Domain Inhibition Assay (Ras Superfamily Assay); settings: at 20 μM; for KRas G12D mutant + SOS: % inh.: with SOS; for KRas G12D mutant: % inh.: without SOS
Outline: (§1)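 Binding of 100 nM fluorescent GTP (Cy3 or Cy5, 45 min, room temperature) was read after washes from plate-captured His-tagged protein. Beforehand, compounds at 20 μM or in dilution series for IC50 sat 3 h on the protein in Tris buffer pH 7.4 or 7.0 with 1% DMSO, Sos GEF optionally added for the last hour.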

KRas wild type = experiment: as above; settings: at 20 μM; for KRas wild type + SOS: % inh.: with SOS; for KRas wild type: % inh.: without SOS
Outline: as §1

IL6 = experiment: IL-6 Quantification Assay (ELISA), LPS-stimulated RAW 264.7; format: cell-based; design: inhibition: dose or concentration left out as unconfirmed; settings: Mus musculus, RAW264.7; read-out: IL-6: % inh.
[1] = system: MiaPaca-2 (expressing KRAS G12C mutant); experiment: Proliferation Assay (Cell Viability Assay); format: cell-based; settings: Homo sapiens, MIA PaCa-2
Outline: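 After 2–4 days' exposure at 37 °C, 5% CO2 to a single 10 μM final concentration or a dilution series (IC50), percent proliferation inhibition was derived from CellTiter 96 Aqueous One viability readings. The medium contained 0.3% DMSO and 10% FBS. KRAS G12C MiaPaca-2 cells were plated at 2000–5000/well the day before.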

[2] = Proliferation assay, MiaPaca-2, read-out: MiaPaca-2 IC50 (nM) Pancreatic
[3] = read-out: Proliferation in MiaPaca-2: IC50

SMILES	KRas G12D mutant + SOS: % inh. (KRas G12D mutant)	KRas G12D mutant: % inh. (KRas G12D mutant)	KRas wild type + SOS: % inh. (KRas wild type)	KRas wild type: % inh. (KRas wild type)	inhibition (IL6) [%]	IC50 [1, 2] [nM]	IC50 [1, 3] [nM]
Cc1c(-c2ccn(C)n2)cn2nc(-c3nccn3C)nc(Nc3cc(N4CCOCC4)ccn3)c12 [Compound 222, 5-Methyl-2-(1-methyl-1H-imidazol-2-yl)-6-(1-methyl-1H-pyrazol-3-yl)-N-(4-morpholinopyridin-2-yl)pyrrolo[2,1-f][1,2,4]triazin-4-amine]	D (D = 76-100% inhibition)	D (D = 76-100% inhibition)	D (D = 76-100% inhibition)	D (D = 76-100% inhibition)	50 to 74	1 to 10	< 150
COc1ccnc(N(C)c2nc(-c3nccn3C)nn3cc(-c4ccn(C)n4)c(C)c23)c1 [Compound 223, N-(4-Methoxypyridin-2-yl)-N,5-dimethyl-2-(1-methyl-1H-imidazol-2-yl)-6-(1-methyl-1H-pyrazol-3-yl)pyrrolo[2,1-f][1,2,4]triazin-4-amine]	A (A = 1-25% inhibition)	B (B = 26-49% inhibition)	0 (0 = 0% inhibition)	B (B = 26-49% inhibition)	0		> 1000
COc1ccc(Nc2nc(-c3nccn3C)nn3cc(-c4ccn(C)n4)c(C)c23)nc1 [Compound 224, N-(5-Methoxypyridin-2-yl)-5-methyl-2-(1-methyl-1H-imidazol-2-yl)-6-(1-methyl-1H-pyrazol-3-yl)pyrrolo[2,1-f][1,2,4]triazin-4-amine]	D (D = 76-100% inhibition)	D (D = 76-100% inhibition)	D (D = 76-100% inhibition)	D (D = 76-100% inhibition)	50 to 74		< 150
COc1ccc(N(C)c2nc(-c3nccn3C)nn3cc(-c4ccn(C)n4)c(C)c23)nc1 [Compound 225, N-(5-Methoxypyridin-2-yl)-N,5-dimethyl-2-(1-methyl-1H-imidazol-2-yl)-6-(1-methyl-1H-pyrazol-3-yl)pyrrolo[2,1-f][1,2,4]triazin-4-amine]	A (A = 1-25% inhibition)	B (B = 26-49% inhibition)	A (A = 1-25% inhibition)	A (A = 1-25% inhibition)	0		> 1000
Cc1ccc(Nc2nc(-c3nccn3C)nn3cc(-c4ccn(C)n4)c(C)c23)nc1 [Compound 226, 5-Methyl-2-(1-methyl-1H-imidazol-2-yl)-6-(1-methyl-1H-pyrazol-3-yl)-N-(5-methylpyridin-2-yl)pyrrolo[2,1-f][1,2,4]triazin-4-amine]	D (D = 76-100% inhibition)	D (D = 76-100% inhibition)	D (D = 76-100% inhibition)	D (D = 76-100% inhibition)	50 to 74		< 150
Cc1c(-c2ccn(C)n2)cn2nc(-c3nccn3C)nc(Nc3ccc(N(C)C)cn3)c12 [Compound 227, N5,N5-Dimethyl-N2-(5-methyl-2-(1-methyl-1H-imidazol-2-yl)-6-(1-methyl-1H-pyrazol-3-yl)pyrrolo[2,1-f][1,2,4]triazin-4-yl)pyridine-2,5-diamine]	D (D = 76-100% inhibition)	D (D = 76-100% inhibition)	D (D = 76-100% inhibition)	D (D = 76-100% inhibition)	50 to 74		< 150
Cc1c(-c2ccn(C)n2)cn2nc(-c3nccn3C)nc(Nc3ccc(N4CCCC4)cn3)c12 [Compound 228, 5-Methyl-2-(1-methyl-1H-imidazol-2-yl)-6-(1-methyl-1H-pyrazol-3-yl)-N-(5-(pyrrolidin-1-yl)pyridin-2-yl)pyrrolo[2,1-f][1,2,4]triazin-4-amine]	C (C = 50-75% inhibition)	D (D = 76-100% inhibition)	C (C = 50-75% inhibition)	C (C = 50-75% inhibition)	25 to 49		< 150
CCOc1ccc(Nc2nc(-c3nccn3C)nn3cc(-c4ccn(C)n4)c(C)c23)nc1 [Compound 229, N-(5-Ethoxypyridin-2-yl)-5-methyl-2-(1-methyl-1H-imidazol-2-yl)-6-(1-methyl-1H-pyrazol-3-yl)pyrrolo[2,1-f][1,2,4]triazin-4-amine]	D (D = 76-100% inhibition)	D (D = 76-100% inhibition)	D (D = 76-100% inhibition)	C (C = 50-75% inhibition)	26 to 49		150 to 500
Cc1c(-c2ccn(C)n2)cn2nc(-c3nccn3C)nc(Nc3ccc(OCC(F)(F)F)cn3)c12 [Compound 230, 5-Methyl-2-(1-methyl-1H-imidazol-2-yl)-6-(1-methyl-1H-pyrazol-3-yl)-N-(5-(2,2,2-trifluoroethoxy)pyridin-2-yl)pyrrolo[2,1-f][1,2,4]triazin-4-amine]	D (D = 76-100% inhibition)	D (D = 76-100% inhibition)	D (D = 76-100% inhibition)	D (D = 76-100% inhibition)	50 to 74		< 150
Cc1c(-c2ccn(C)n2)cn2nc(-c3nccn3C)nc(Nc3ccc(OC(F)F)cn3)c12 [Compound 231, N-(5-(Difluorometh-oxy)pyridin-2-yl)-5-methyl-2-(1-methyl-1H-imidazol-2-yl)-6-(1-methyl-1H-pyrazol-3-yl)pyrrolo[2,1-f][1,2,4]triazin-4-amine]	C (C = 50-75% inhibition)	C (C = 50-75% inhibition)	B (B = 26-49% inhibition)	B (B = 26-49% inhibition)	1 to 24		< 150
Cc1c(-c2ccn(C)n2)cn2nc(-c3nccn3C)nc(Nc3ccc(OC(F)(F)F)cn3)c12 [Compound 232, 5-Methyl-2-(1-methyl-1H-imidazol-2-yl)-6-(1-methyl-1H-pyrazol-3-yl)-N-(5-(trifluoro-methoxy)pyridin-2-yl)pyrrolo[2,1-f][1,2,4]triazin-4-amine]	D (D = 76-100% inhibition)	D (D = 76-100% inhibition)	D (D = 76-100% inhibition)	D (D = 76-100% inhibition)	25 to 49		< 150
Cc1c(-c2ccn(C)n2)cn2nc(-c3nccn3C)nc(Nc3ccc(C(F)(F)F)cn3)c12 [Compound 233, 5-Methyl-2-(1-methyl-1H-imidazol-2-yl)-6-(1-methyl-1H-pyrazol-3-yl)-N-(5-(trifluoromethyl)pyridin-2-yl)pyrrolo[2,1-f][1,2,4]triazin-4-amine]	D (D = 76-100% inhibition)	D (D = 76-100% inhibition)	D (D = 76-100% inhibition)	D (D = 76-100% inhibition)	25 to 49		< 150
Cc1c(-c2ccn(C)n2)cn2nc(-c3nccn3C)nc(Nc3ccc(C(F)F)cn3)c12 [Compound 234, N-(5-(Difluoromethyl)pyridin-2-yl)-5-methyl-2-(1-methyl-1H-imidazol-2-yl)-6-(1-methyl-1H-pyrazol-3-yl)pyrrolo[2,1-f][1,2,4]triazin-4-amine]	D (D = 76-100% inhibition)	D (D = 76-100% inhibition)	D (D = 76-100% inhibition)	C (C = 50-75% inhibition)	1 to 24		< 150
COc1cc(Nc2nc(-c3nccn3C)nn3cc(-c4ccn(C)n4)c(C)c23)ncc1C [Compound 235, N-(4-Methoxy-5-methylpyridin-2-yl)-5-methyl-2-(1-methyl-1H-imidazol-2-yl)-6-(1-methyl-1H-pyrazol-3-yl)pyrrolo[2,1-f][1,2,4]triazin-4-amine]	C (C = 50-75% inhibition)	C (C = 50-75% inhibition)	B (B = 26-49% inhibition)	C (C = 50-75% inhibition)	50 to 84	1 to 10	< 150
COc1cnc(Nc2nc(-c3nccn3C)nn3cc(-c4ccn(C)n4)c(C)c23)cc1C [Compound 236, N-(5-Methoxy-4-methylpyridin-2-yl)-5-methyl-2-(1-methyl-1H-imidazol-2-yl)-6-(1-methyl-1H-pyrazol-3-yl)pyrrolo[2,1-f][1,2,4]triazin-4-amine]	B (B = 26-49% inhibition)	C (C = 50-75% inhibition)	B (B = 26-49% inhibition)	B (B = 26-49% inhibition)	0		150 to 500
